# Experimental data as given in US8952043B2, “Benzoxepin PI3K inhibitor compounds and methods of use” (Genentech, Inc., priority 2009, dated 2015).
# What was measured:
# p110 alpha PI3K = molecular target: T1, p110 alpha PI3K (Homo sapiens, UniProt P42336); experiment: p110α (alpha) PI3K binding assay (fluorescence polarization); conditions: read-out: IC50 (inhibition of PI3K alpha, p110 alpha)
# T1 construct: purchased Upstate Cell Signaling Solutions, Charlottesville, Va
# Description: Determination of the PI3 kinase activity of a Formula I compound is possible by a number of direct and indirect detection methods. Certain exemplary compounds described herein were assayed for their p110α (alpha), and other isoform, PI3K binding activity (Example 601) and in vitro activity against tumor cells (Example 602).
# Binding Assays: Initial polarization experiments were performed on an Analyst HT 96-384 (Molecular Devices Corp, Sunnyvale, Calif.). […] After an incubation time of 30 minutes at room temperature, the reactions were stopped by the addition of GRP-1 and PIP3-TAMRA probe (Echelon-Inc., Salt Lake City, Utah.) 100 nM and 5 nM final concentrations respectively. Read with standard cut-off filters for the rhodamine fluorophore (λex=530 nm; λem=590 nm) in 384-well black low volume Proxiplates (PerkinElmer, Wellesley, Mass.) Fluorescence polarization values were plotted as a function of the protein concentration, and the EC50 values were obtained by fitting the data to a 4-parameter equation using KaleidaGraph software (Synergy software, Reading, Pa.). This experiment also establishes the appropriate protein concentration to use in subsequent competition experiments with inhibitors.
# Inhibitor IC50 values were determined by addition of the 0.04 mg/mL p110 alpha PI3K (final concentration) combined with PIP2 ([…] final concentration) to wells containing 1:3 serial dilutions of the antagonists in a final concentration of […] ATP (Cell Signaling Technology, Inc., Danvers, Mass.) in the polarization buffer. After an incubation time of 30 minutes at room temperature, the reactions were stopped by the addition of GRP-1 and PIP3-TAMRA probe (Echelon-Inc., Salt Lake City, Utah.) 100 nM and 5 nM final concentrations respectively. Read with standard cut-off filters for the rhodamine fluorophore (λex=530 nm; λem=590 nm) in 384-well black low volume proxi plates (PerkinElmer, Wellesley, Mass.) Fluorescence polarization values were plotted as a function of the antagonist concentration, and the IC50 values were obtained by fitting the data to a 4-parameter equation in Assay Explorer software (MDL, San Ramon, Calif.).
# Alternatively, inhibition of PI3K was determined in a radiometric assay using purified, recombinant enzyme and ATP at a concentration of 1 uM. The Formula I compound was serially diluted in 100% DMSO. The kinase reaction was incubated for 1 hr at room temperature, and the reaction was terminated by the addition of PBS. IC50 values were subsequently determined using sigmoidal dose-response curve fit (variable slope).
# AU565 = experiment: CellTiter-Glo cell proliferation assay, AU565; format: cell-based; conditions: Homo sapiens, Breast, mutation status WT
# Description: (§1) The in vitro potency of Formula I exemplary compounds was measured by the cell proliferation assay, CellTiter-Glo® Luminescent Cell Viability Assay, commercially available from Promega Corp., Madison, Wis. (Example 602). This homogeneous assay method is based on the recombinant expression of Coleoptera luciferase (U.S. Pat. Nos. 5,583,024; 5,674,713; 5,700,670) and determines the number of viable cells in culture based on quantitation of the ATP present, an indicator of metabolically active cells (Crouch et al (1993) J. Immunol. Meth. 160:81-88; U.S. Pat. No. 6,602,677). The CellTiter-Glo® Assay was conducted in 96 or 384 well format, making it amenable to automated high-throughput screening (HTS) (Cree et al (1995) AntiCancer Drugs 6:398-404). The homogeneous assay procedure involves adding the single reagent (CellTiter-Glo® Reagent) directly to cells cultured in serum-supplemented medium. Cell washing, removal of medium and multiple pipetting steps are not required. The system detects as few as 15 cells/well in a 384-well format in 10 minutes after adding reagent and mixing.
# (§2) Efficacy of Formula I compounds were measured by a cell proliferation assay employing the following protocol (Promega Corp. Technical Bulletin TB288; Mendoza et al (2002) Cancer Res. 62:5485-5488):
# (§3) 1. An aliquot of 100 μl of cell culture containing about 10^4 cells (PC3, Detroit562, or MDAMB361.1) in medium was deposited in each well of a 384-well, opaque-walled plate.
# (§4) 2. Control wells were prepared containing medium and without cells.
# (§5) 3. The compound was added to the experimental wells and incubated for 3-5 days.
# (§6) 4. The plates were equilibrated to room temperature for approximately 30 minutes.
# (§7) 5. A volume of CellTiter-Glo Reagent equal to the volume of cell culture medium present in each well was added.
# (§8) 6. The contents were mixed for 2 minutes on an orbital shaker to induce cell lysis.
# (§9) 7. The plate was incubated at room temperature for 10 minutes to stabilize the luminescence signal.
# (§10) 8. Luminescence was recorded and reported in graphs as RLU=relative luminescence units.
# (§11) Alternatively, cells were seeded at optimal density in a 96 well plate and incubated for 4 days in the presence of test compound. Alamar Blue™ was subsequently added to the assay medium, and cells were incubated for 6 hr before reading at 544 nm excitation, 590 nm emission. EC50 values were calculated using a sigmoidal dose response curve fit. […] It is commonly used as a measure of drug potency.
# (§12) The anti-proliferative effects of Formula I exemplary compounds were measured by the CellTiter-Glo® Assay against various tumor cell lines, including the following: […]
# BT474 = experiment: CellTiter-Glo cell proliferation assay, BT474; format: cell-based; conditions: Homo sapiens, BT-474, Breast, mutation status PI3K(amped)
# Description: as §1, §2
# 1. […]
# as §9, §10
# (§13) Alternatively, cells were seeded at optimal density in a 96 well plate and incubated for 4 days in the presence of test compound. Alamar Blue™ was subsequently added to the assay medium, and cells were incubated for 6 hr before reading at 544 nm excitation, 590 nm emission. EC50 values were calculated using a sigmoidal dose response curve fit. […]
# as §12
# EVSA-T = experiment: CellTiter-Glo cell proliferation assay, EVSA-T; format: cell-based; conditions: Homo sapiens, Breast, mutation status PTEN
# Description: as §1, §2, §3, §4, §5, §6, §7, §8, §9, §10, §11, §12
# HCC1954 = experiment: CellTiter-Glo cell proliferation assay, HCC1954; format: cell-based; conditions: Homo sapiens, Breast, mutation status PI3K
# Description: as §1, §2
# 1. […]
# as §9, §10, §13, §12
# KPL4 = experiment: CellTiter-Glo cell proliferation assay, KPL4; format: cell-based; conditions: Breast, mutation status PI3K
# Description: as §1, §2
# 1. […]
# as §9, §10, §13, §12
# MDA-MB-361.1 = experiment: CellTiter-Glo cell proliferation assay, MDA-MB-361.1; format: cell-based; conditions: Breast, mutation status PI3K
# Description: as §1, §2, §3, §4, §5, §6, §7, §8, §9, §10, §11, §12
# MFM223 = experiment: CellTiter-Glo cell proliferation assay, MFM223; format: cell-based; conditions: Homo sapiens, MFM-223, Breast, mutation status PI3K
# Description: as §1, §2
# 1. […]
# as §9, §10, §13, §12
# T47D = experiment: CellTiter-Glo cell proliferation assay, T47D; format: cell-based; conditions: Homo sapiens, Breast, mutation status PI3K
# Description: as §1, §2
# 1. […]
# as §9, §10, §13, §12
# KM12 = experiment: CellTiter-Glo cell proliferation assay, KM12; format: cell-based; conditions: Homo sapiens, Colon, mutation status PTEN
# Description: (§14) The in vitro potency of Formula I exemplary compounds was measured by the cell proliferation assay, CellTiter-Glo® Luminescent Cell Viability Assay, commercially available from Promega Corp., Madison, Wis. (Example 602). This homogeneous assay method is based on the recombinant expression of Coleoptera luciferase (U.S. Pat. Nos. 5,583,024; 5,674,713; 5,700,670) and determines the number of viable cells in culture based on quantitation of the ATP present, an indicator of metabolically active cells (Crouch et al (1993) J. Immunol. Meth. 160:81-88; U.S. Pat. No. 6,602,677). […]
# (§15) Efficacy of Formula I compounds were measured by a cell proliferation assay employing the following protocol (Promega Corp. Technical Bulletin TB288; Mendoza et al (2002) Cancer Res. 62:5485-5488): […]
# as §9, §10, §13
# MDST8 = experiment: CellTiter-Glo cell proliferation assay, MDST8; format: cell-based; conditions: Colon, mutation status PTEN
# Description: as §14, §15, §9, §10, §13
# U87MG = experiment: CellTiter-Glo cell proliferation assay, U87MG; format: cell-based; conditions: Homo sapiens, U-87 MG, Glioma, mutation status PTEN
# Description: as §14, §15, §9, §10, §13
# H2122 = experiment: CellTiter-Glo cell proliferation assay, H2122; format: cell-based; conditions: Homo sapiens, NCI-H2122, Lung(NSCLC), mutation status K-RAS
# Description: as §1, §2
# 1. […]
# as §9, §10, §13, §12
# H520 = experiment: CellTiter-Glo cell proliferation assay, H520; format: cell-based; conditions: Homo sapiens, NCI-H520, Lung(NSCLC), mutation status PTEN
# Description: as §14, §15, §9, §10, §13
# PC3 = experiment: CellTiter-Glo cell proliferation assay, PC3; format: cell-based; conditions: Homo sapiens, PC-3, Prostate, mutation status PTEN
# Description: as §1, §2
# 1. […]
# as §9, §10, §13, §12
# T1 sequence (P42336 whole entry): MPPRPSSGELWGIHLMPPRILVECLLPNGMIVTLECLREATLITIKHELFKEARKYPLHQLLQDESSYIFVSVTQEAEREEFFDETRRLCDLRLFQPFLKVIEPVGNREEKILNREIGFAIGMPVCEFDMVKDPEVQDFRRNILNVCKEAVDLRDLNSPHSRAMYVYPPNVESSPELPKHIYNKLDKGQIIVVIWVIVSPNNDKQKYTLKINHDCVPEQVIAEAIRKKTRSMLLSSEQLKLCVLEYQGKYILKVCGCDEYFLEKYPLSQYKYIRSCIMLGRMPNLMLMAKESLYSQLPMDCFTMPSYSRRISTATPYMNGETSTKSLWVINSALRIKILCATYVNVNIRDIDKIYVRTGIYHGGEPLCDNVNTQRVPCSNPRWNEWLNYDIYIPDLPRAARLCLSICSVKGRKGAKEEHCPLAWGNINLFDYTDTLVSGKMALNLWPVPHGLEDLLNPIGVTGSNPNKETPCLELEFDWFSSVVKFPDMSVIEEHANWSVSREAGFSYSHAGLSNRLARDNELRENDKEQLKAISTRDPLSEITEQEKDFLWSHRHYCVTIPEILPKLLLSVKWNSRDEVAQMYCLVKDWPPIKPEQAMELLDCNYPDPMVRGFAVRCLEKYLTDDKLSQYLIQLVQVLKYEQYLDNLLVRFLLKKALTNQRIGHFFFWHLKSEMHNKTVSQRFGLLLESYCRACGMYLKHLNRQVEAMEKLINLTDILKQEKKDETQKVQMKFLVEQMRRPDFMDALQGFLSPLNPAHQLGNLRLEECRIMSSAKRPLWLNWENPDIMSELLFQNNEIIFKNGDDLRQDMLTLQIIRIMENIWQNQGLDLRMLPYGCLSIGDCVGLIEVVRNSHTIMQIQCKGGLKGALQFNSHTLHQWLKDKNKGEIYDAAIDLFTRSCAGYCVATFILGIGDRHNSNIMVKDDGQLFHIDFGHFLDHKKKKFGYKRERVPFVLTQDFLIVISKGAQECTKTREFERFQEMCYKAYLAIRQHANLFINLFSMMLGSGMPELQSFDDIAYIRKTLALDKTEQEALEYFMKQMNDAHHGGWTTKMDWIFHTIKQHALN
# T1 sequence (P27986 whole entry partner): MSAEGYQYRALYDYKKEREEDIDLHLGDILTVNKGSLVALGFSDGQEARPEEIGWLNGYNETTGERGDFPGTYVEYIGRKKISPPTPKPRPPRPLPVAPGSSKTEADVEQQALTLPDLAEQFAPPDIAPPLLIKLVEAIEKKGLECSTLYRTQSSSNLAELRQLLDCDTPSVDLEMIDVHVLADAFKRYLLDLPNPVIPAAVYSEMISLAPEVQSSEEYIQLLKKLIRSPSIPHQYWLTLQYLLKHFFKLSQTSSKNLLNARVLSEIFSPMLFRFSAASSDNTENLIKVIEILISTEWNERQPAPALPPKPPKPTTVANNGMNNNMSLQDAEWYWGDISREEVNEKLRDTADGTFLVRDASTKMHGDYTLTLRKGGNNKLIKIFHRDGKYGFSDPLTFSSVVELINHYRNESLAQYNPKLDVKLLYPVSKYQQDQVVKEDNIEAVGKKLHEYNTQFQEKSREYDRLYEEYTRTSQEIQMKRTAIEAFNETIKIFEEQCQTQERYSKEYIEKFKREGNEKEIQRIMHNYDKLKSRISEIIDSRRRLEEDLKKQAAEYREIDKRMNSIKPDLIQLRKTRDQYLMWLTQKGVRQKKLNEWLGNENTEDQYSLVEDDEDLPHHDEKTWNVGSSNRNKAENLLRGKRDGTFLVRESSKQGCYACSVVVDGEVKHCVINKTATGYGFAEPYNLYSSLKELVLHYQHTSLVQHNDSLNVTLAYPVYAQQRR
SMILES,IC50 (p110 alpha PI3K) [nM],EC50 (BT474) [nM],EC50 (HCC1954) [nM],EC50 (MDA-MB-361.1) [nM],EC50 (T47D) [nM],EC50 (U87MG) [nM],EC50 (H2122) [nM],EC50 (H520) [nM],EC50 (PC3) [nM],EC50 (AU565) [nM],EC50 (EVSA-T) [nM],EC50 (KPL4) [nM],EC50 (MFM223) [nM],EC50 (KM12) [nM],EC50 (MDST8) [nM]
"CC(C)n1ncnc1-c1cc2c(s1)-c1ccc(-c3cccc(C(=O)O)c3)cc1OCC2 [compound 147, 3-(2-(1-isopropyl-1H-1,2,4-triazol-5-yl)-4,5-dihydrobenzo[b]thieno[2,3-d]oxepin-8-yl)benzoic acid]",21,,,,,,,,,,,,,,
"O=C(c1nc2c(s1)CCOc1cc(-c3cn[nH]c3)ccc1-2)N1CCC[C@@H]1CO [compound 101, ((R)-2-Hydroxymethyl-pyrrolidin-1-yl)-[8-(1H-pyrazol-4-yl)-4,5-dihydro-6-oxa-3-thia-1-aza-benzo[e]azulen-2-yl]-methanone]",31,,,,,,,,,,,,,,
"CC(C)N(C)C(=O)c1nc2c(s1)CCOc1cc(-c3cn[nH]c3)ccc1-2 [compound 102, 8-(1H-Pyrazol-4-yl)-4,5-dihydro-6-oxa-3-thia-1-aza-benzo[e]azulene-2-carboxylic acid isopropyl-methyl-amide]",5.1,,,,,,,,,,,,,,

# More lines, main results first:
IC50 (p110 alpha PI3K) [nM],EC50 (BT474) [nM],EC50 (HCC1954) [nM],EC50 (MDA-MB-361.1) [nM],EC50 (T47D) [nM],EC50 (U87MG) [nM],EC50 (H2122) [nM],EC50 (H520) [nM],EC50 (PC3) [nM],SMILES,EC50 (AU565) [nM],EC50 (EVSA-T) [nM],EC50 (KPL4) [nM],EC50 (MFM223) [nM],EC50 (KM12) [nM],EC50 (MDST8) [nM]
1.8,,,,,,,,,"CC(C)N(CCO)C(=O)c1nc2c(s1)CCOc1cc(-c3cn[nH]c3)ccc1-2 [compound 103, 8-(1H-Pyrazol-4-yl)-4,5-dihydro-6-oxa-3-thia-1-aza-benzo[e]azulene-2-carboxylic acid (2-hydroxy-ethyl)-isopropyl-amide]",,,,,,
,638,340,855,185,2090,542,972,185,"CC(C)n1nc(N)nc1-c1nc2c(s1)CCOc1cc(C3CN(CCS(C)(=O)=O)C3)ccc1-2 [compound 463, 1-Isopropyl-5-{8-[1-(2-methanesulfonyl-ethyl)-azetidin-3-yl]-4,5-dihydro-6-oxa-3-thia-1-aza-benzo[e]azulen-2-yl}-1H-[1,2,4]triazol-3-ylamine]",225,746,103,559,321,1720
,428,348,1090,145,858,1170,226,145,"CC(C)n1ncnc1-c1nc2c(s1)CCOc1cc(C3CCNCC3)ccc1-2 [compound 375, 2-(2-isopropyl-2H-[1,2,4]triazol-3-yl)-8-piperidin-4-yl-4,5-dihydro-6-oxa-3-thia-1-aza-benzo[e]azulene]",241,225,151,739,1750,1740
